Measurements from PubChem BioAssay (NCI).
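Dose response: 5 concentrations. Exposure: 48 h. Format: 96-well plates. Endpoint: linear interpolation; highest concentration if not reached. TGI is the concentration that stops growth completely.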

Assays:
Assay in all cases: growth of human tumour cells (NCI), 48 h
786-0 renal = test system: 786-0 renal
A549 NSCLC = test system: A549 NSCLC
ACHN renal = test system: ACHN renal
BT-549 breast = test system: BT-549 breast
CAKI-1 renal = test system: CAKI-1 renal
CCRF-CEM leukemia = test system: CCRF-CEM leukemia
COLO 205 colon = test system: COLO 205 colon
DU-145 prostate = test system: DU-145 prostate
EKVX NSCLC = test system: EKVX NSCLC
HCC-2998 colon = test system: HCC-2998 colon
HCT-116 colon = test system: HCT-116 colon
HCT-15 colon = test system: HCT-15 colon
HL-60(TB) leukemia = test system: HL-60(TB) leukemia
HOP-62 NSCLC = test system: HOP-62 NSCLC
HOP-92 NSCLC = test system: HOP-92 NSCLC
HS 578T breast = test system: HS 578T breast
HT29 colon = test system: HT29 colon
IGROV1 ovarian = test system: IGROV1 ovarian
K-562 leukemia = test system: K-562 leukemia
KM12 colon = test system: KM12 colon
LOX IMVI melanoma = test system: LOX IMVI melanoma
M14 melanoma = test system: M14 melanoma
MALME-3M melanoma = test system: MALME-3M melanoma
MCF7 breast = test system: MCF7 breast
MDA-MB-231 breast = test system: MDA-MB-231 breast
MDA-MB-435 = test system: MDA-MB-435
MDA-N = test system: MDA-N
MOLT-4 leukemia = test system: MOLT-4 leukemia
NCI-H23 lung = test system: NCI-H23 lung
NCI-H460 lung = test system: NCI-H460 lung
NCI-H522 lung = test system: NCI-H522 lung
NCI/ADR-RES ovarian = test system: NCI/ADR-RES ovarian
OVCAR-3 ovarian = test system: OVCAR-3 ovarian
OVCAR-4 ovarian = test system: OVCAR-4 ovarian
OVCAR-5 ovarian = test system: OVCAR-5 ovarian
OVCAR-8 ovarian = test system: OVCAR-8 ovarian
PC-3 prostate = test system: PC-3 prostate
RPMI-8226 leukemia = test system: RPMI-8226 leukemia
SF-268 CNS = test system: SF-268 CNS
SF-295 CNS = test system: SF-295 CNS
SF-539 CNS = test system: SF-539 CNS
SK-MEL-2 melanoma = test system: SK-MEL-2 melanoma
SK-MEL-28 melanoma = test system: SK-MEL-28 melanoma
SK-MEL-5 melanoma = test system: SK-MEL-5 melanoma
SK-OV-3 ovarian = test system: SK-OV-3 ovarian
SN12C renal = test system: SN12C renal
SNB-19 CNS = test system: SNB-19 CNS
SNB-75 CNS = test system: SNB-75 CNS
SR leukemia = test system: SR leukemia
SW-620 colon = test system: SW-620 colon
T-47D breast = test system: T-47D breast
U251 CNS = test system: U251 CNS
UACC-257 melanoma = test system: UACC-257 melanoma
UACC-62 melanoma = test system: UACC-62 melanoma
UO-31 renal = test system: UO-31 renal
TK-10 renal = test system: TK-10 renal

Structure (SMILES): O=[N+]([O-])c1ccc(NC(=S)N=Nc2c(O)[nH]c3ccccc23)cc1
- TGI (786-0 renal): 18.4 µM
- TGI (A549 NSCLC): 21.5 µM
- TGI (ACHN renal): 21.1 µM
- TGI (BT-549 breast): 55.4 µM
- TGI (CAKI-1 renal): 21.7 µM
- TGI (CCRF-CEM leukemia): > 100 µM
- TGI (COLO 205 colon): 26.3 µM
- TGI (DU-145 prostate): 29.5 µM
- TGI (EKVX NSCLC): 43 µM
- TGI (HCC-2998 colon): 26.7 µM
- TGI (HCT-116 colon): 18.6 µM
- TGI (HCT-15 colon): 16.7 µM
- TGI (HL-60(TB) leukemia): > 100 µM
- TGI (HOP-62 NSCLC): 18.1 µM
- TGI (HOP-92 NSCLC): 30.7 µM
- TGI (HS 578T breast): 59.8 µM
- TGI (HT29 colon): > 100 µM
- TGI (IGROV1 ovarian): 29.3 µM
- TGI (K-562 leukemia): > 100 µM
- TGI (KM12 colon): 78.2 µM
- TGI (LOX IMVI melanoma): 36.3 µM
- TGI (M14 melanoma): 25.7 µM
- TGI (MALME-3M melanoma): 21.9 µM
- TGI (MCF7 breast): 38.1 µM
- TGI (MDA-MB-231 breast): 13.9 µM
- TGI (MDA-MB-435): 53.7 µM
- TGI (MDA-N): 30.2 µM
- TGI (MOLT-4 leukemia): 19.8 µM
- TGI (NCI-H23 lung): 54.5 µM
- TGI (NCI-H460 lung): 29.2 µM
- TGI (NCI-H522 lung): 34.9 µM
- TGI (NCI/ADR-RES ovarian): 23.7 µM
- TGI (OVCAR-3 ovarian): 28.1 µM
- TGI (OVCAR-4 ovarian): 79.6 µM
- TGI (OVCAR-5 ovarian): 43.3 µM
- TGI (OVCAR-8 ovarian): 3.16 µM
- TGI (PC-3 prostate): 16.6 µM
- TGI (RPMI-8226 leukemia): > 100 µM
- TGI (SF-268 CNS): 37.9 µM
- TGI (SF-295 CNS): 21.5 µM
- TGI (SF-539 CNS): 31.1 µM
- TGI (SK-MEL-2 melanoma): 23.3 µM
- TGI (SK-MEL-28 melanoma): 36.9 µM
- TGI (SK-MEL-5 melanoma): 24 µM
- TGI (SK-OV-3 ovarian): 14.8 µM
- TGI (SN12C renal): 63 µM
- TGI (SNB-19 CNS): 36.4 µM
- TGI (SNB-75 CNS): 31.4 µM
- TGI (SR leukemia): > 100 µM
- TGI (SW-620 colon): 34.2 µM
- TGI (T-47D breast): 37.7 µM
- TGI (U251 CNS): 38.7 µM
- TGI (UACC-257 melanoma): 47.3 µM
- TGI (UACC-62 melanoma): 24 µM
- TGI (UO-31 renal): 19.3 µM

Structure (SMILES): Cc1cccc(/C=N/NC(=S)Nc2ccc(Cl)cc2)n1
- TGI (786-0 renal): 12.1 µM
- TGI (A549 NSCLC): 13.6 µM
- TGI (ACHN renal): 11.3 µM
- TGI (BT-549 breast): 30.4 µM
- TGI (CAKI-1 renal): 13.3 µM
- TGI (CCRF-CEM leukemia): 42.8 µM
- TGI (COLO 205 colon): 17.6 µM
- TGI (DU-145 prostate): > 100 µM
- TGI (EKVX NSCLC): 23.1 µM
- TGI (HCC-2998 colon): 40.3 µM
- TGI (HCT-116 colon): 12.9 µM
- TGI (HCT-15 colon): 23.1 µM
- TGI (HOP-62 NSCLC): 11.9 µM
- TGI (HOP-92 NSCLC): 20 µM
- TGI (HS 578T breast): 17.5 µM
- TGI (HT29 colon): 54.5 µM
- TGI (IGROV1 ovarian): 12.7 µM
- TGI (K-562 leukemia): > 100 µM
- TGI (KM12 colon): 40.8 µM
- TGI (LOX IMVI melanoma): 10.7 µM
- TGI (M14 melanoma): 7.69 µM
- TGI (MALME-3M melanoma): 20.8 µM
- TGI (MCF7 breast): 25.9 µM
- TGI (MDA-MB-231 breast): 15.8 µM
- TGI (MDA-MB-435): 17.5 µM
- TGI (MDA-N): 25.5 µM
- TGI (MOLT-4 leukemia): 10.9 µM
- TGI (NCI-H23 lung): 34.9 µM
- TGI (NCI-H460 lung): 15.9 µM
- TGI (NCI-H522 lung): 4.93 µM
- TGI (NCI/ADR-RES ovarian): 26 µM
- TGI (OVCAR-3 ovarian): 61 µM
- TGI (OVCAR-4 ovarian): > 100 µM
- TGI (OVCAR-5 ovarian): 73.3 µM
- TGI (OVCAR-8 ovarian): 33.7 µM
- TGI (PC-3 prostate): 26.2 µM
- TGI (RPMI-8226 leukemia): > 100 µM
- TGI (SF-268 CNS): 17.4 µM
- TGI (SF-295 CNS): 14.4 µM
- TGI (SF-539 CNS): 12.7 µM
- TGI (SK-MEL-2 melanoma): 25.6 µM
- TGI (SK-MEL-28 melanoma): 20 µM
- TGI (SK-MEL-5 melanoma): 8.97 µM
- TGI (SK-OV-3 ovarian): 10.8 µM
- TGI (SN12C renal): 34 µM
- TGI (SNB-19 CNS): 22.2 µM
- TGI (SNB-75 CNS): 16.1 µM
- TGI (SR leukemia): > 100 µM
- TGI (SW-620 colon): 20 µM
- TGI (T-47D breast): > 100 µM
- TGI (TK-10 renal): 71.7 µM
- TGI (U251 CNS): 13.5 µM
- TGI (UACC-257 melanoma): 18.9 µM
- TGI (UACC-62 melanoma): 3.68 µM
- TGI (UO-31 renal): 12.5 µM
